Legend:
[1] = test system: 7-week-old female C57BL/6N mice; assay: Evaluation of a bone mass increase with PTH (GST-RANKL, ovariectomy); format: in vivo, mouse
Procedure: GST-RANKL was administered twice to groups of 7-week-old female C57BL/6N mice at 1 mg/kg every 24 hours. Ovariectomy was performed 24 hours after the 2nd administration. In addition, parathyroid hormone (PTH) was subcutaneously administered thereto at 160 μg/kg from 24 hours after the ovariectomy for 10 consecutive days. Further, a group obtained by PBS administration and sham operation (Sham) was designated as a control group for comparison. The serum markers and the femur bone density were measured.

[2] = test system: GST-RANKL-administered 7-week-old female C57BL/6N mice; assay: Evaluation of a bone mass increase with low-dose PTH in GST-RANKL mice; format: in vivo, mouse
Procedure: GST-RANKL was intraperitoneally administered 2 times to groups of 7-week-old female C57BL/6N mice at 1 mg/kg every 24 hours. PTH was subcutaneously administered thereto at 40 or 80 μg/kg from 24 hours after the 2nd administration every 24 hours for 10 consecutive days. In addition, PBS was administered to a group serving as the control group for the GST-RANKL and PTH administration groups for comparison. The serum and femur were collected from each mouse 24 hours after the end of administration for 10 days.
The serum collected from each mouse was subjected to measurement of serum bone resorption markers (Ca and TRAP-5b) and an osteogenesis marker (ALP). Each femur was subjected to measurement of the total bone density, the cortical bone density, the cortical bone thickness, the cortical bone mineral content, and the cortical bone density in the diaphysis with pQCT at points 0.6, 0.8, and 1.0 mm […] the distal growth plate on the proximal side. In addition, image analysis was carried out with micro CT.

[3] = test system: GST-RANKL-administered 7-week-old female C57BL/6N mice; assay: as above; format: in vivo, mouse; conditions: PTH 80 μg/kg; 1.0 mm
[4] = test system: GST-RANKL-administered 7-week-old female C57BL/6N mice; assay: Evaluation of RANKL-signal-inhibiting compound (LFM-A13) in osteopenia mouse models; format: in vivo
Procedure: GST or GST-RANKL (20 μg) was administered 3 times to 7-week-old female C57BL/6N mice every 24 hours. LFM-A13 (20 mg/kg body weigh) or physiological saline was administered thereto 1 hour before GST-RANKL administration. Measurement of the serum Ca concentration and bone morphology measurement was carried out 1.5 hours after the 3rd GST-RANKL administration. In addition, 3D image analysis was carried out with micro CT.

[5] = test system: GST-RANKL-administered 7-week-old female C57BL/6N mice; assay: Evaluation of an osteoporosis therapeutic agent (risedronate) with GST-RANKL-administered mice; format: in vivo, mouse
Procedure: GST-RANKL (426 nmol) was intraperitoneally administered 3 times to groups of 7-week-old female C57BL/6N mice (5 to 6 individuals each) every 24 hours. An osteoporosis therapeutic agent (risedronate) was subcutaneously administered at 0.01 mg/kg every 24 hours from 3 days before GST-RANKL administration. Administration of the agent was continued to the end of the experimentation every 24 hours. The serum, femur, and tibia were collected from each mouse 1.5 hours after the 3rd administration of GST-RANKL. Bone resorption parameters (calcium, CTx, and TRAP-5b) and osteogenesis parameters (osteocalcin and ALP) in the serum were measured. The femur bone density was determined with the use of pQCT and micro CT. Measurement values were compared with those for a control group by the Dunnett method for testing.

[6] = test system: GST-RANKL-administered 7-week-old female C57BL/6 mice; assay: Drug evaluation with bisphosphonate (risedronate) in GST-RANKL mice; format: in vivo, mouse
Procedure: Risedronate was separately administered via a subcutaneous route to groups of 7-week-old female C57BL/6 mice at doses of 3, 10, and 30 μg/kg every 24 hours from the day before GST-RANKL administration to the end of the experimentation. The femur and serum were collected from each mouse 1.5 hours after the 3rd administration of GST-RANKL. Measurement of TRAP-5b, calcium (Ca), and alkaline phosphatase (ALP) was carried out. Each femur was subjected to bone density measurement and image analysis with the use of pQCT.

[7] = test system: GST-RANKL-administered 7-week-old female C57BL/6 mice; assay: Comparison of a plurality of bisphosphonates in GST-RANKL mice; format: in vivo, mouse
Procedure: GST-RANKL was intraperitoneally administered 3 times at 1 mg/kg every 24 hours. The femur, tibia, and serum were collected from each mouse 1.5 hours after the 3rd GST-RANKL administration. Measurement of TRAP-5b, calcium (Ca), and alkaline phosphatase (ALP) in the serum was carried out. Each femur was subjected to bone density measurement with pQCT and image analysis with micro CT.

[8] = test system: 7-week-old female C57BL/6N mice; assay: Production of osteopenia model mice with soluble RANKL; format: in vivo, mouse
Procedure: Soluble RANKL (produced by Peprotech) was intraperitoneally administered 3 times to groups of 7-week-old female C57BL/6N mice (10 individuals each) at doses of 57 and 426 nmol every 24 hours. The serum and femur were collected from each mouse 1.5 hours after the 3rd administration. Bone resorption markers and osteogenesis markers in the serum were measured. The bone density was measured with the use of pQCT at points 0.6, 0.8, and 1.0 mm from the distal growth plate on the proximal side of the femur.

[9] = combination of GST-RANKL and risedronate 0.01 mg/kg

parathyroid hormone [PTH]
bone density decrease ([1]; PTH 160 μg/kg administered to the GST-RANKL+Sham group, p<0.05): significantly suppressed | femur bone density ([1]; PTH 160 μg/kg administered to the PBS+Sham group): significantly increased exclusively at the 1.0-mm point | femur bone density increase ([1]; PTH 160 μg/kg in the OVX group): no significant difference | serum TRAP-5b concentration, fold as high as the relevant group not treated with PTH ([1]; every PTH administration group, 160 μg/kg s.c. 10 consecutive days): approximately 1.5 fold | cortical bone density in the diaphysis, increase in GST-RANKL group ([2]; PTH 40 μg/kg): 3% | serum ALP concentration in GST-RANKL group ([2]; PTH 40 μg/kg): tended to decrease | cancellous bone density increase in GST-RANKL group vs PBS ([2]; PTH 40 μg/kg, 0.6 mm): 25% | cortical bone mineral content increase in GST-RANKL group vs PBS ([2]; PTH 40 μg/kg, 0.6 mm): 80% | cortical bone thickness increase in GST-RANKL group vs PBS ([2]; PTH 40 μg/kg, 0.6 mm): 86% | total bone density increase in GST-RANKL group vs PBS ([2]; PTH 40 μg/kg, 0.6 mm): 14% | cancellous bone density increase in GST-RANKL group vs PBS ([2]; PTH 40 μg/kg, 0.8 mm): 28% | cortical bone density increase in GST-RANKL group vs PBS ([2]; PTH 40 μg/kg, 0.8 mm): 4% | cortical bone mineral content increase in GST-RANKL group vs PBS ([2]; PTH 40 μg/kg, 0.8 mm): 123% | cortical bone thickness increase in GST-RANKL group vs PBS ([2]; PTH 40 μg/kg, 0.8 mm): 127% | total bone density increase in GST-RANKL group vs PBS ([2]; PTH 40 μg/kg, 0.8 mm): 17% | cortical bone density increase in GST-RANKL group vs PBS ([2]; PTH 40 μg/kg, 1.0 mm): 5% | cortical bone mineral content increase in GST-RANKL group vs PBS ([2]; PTH 40 μg/kg, 1.0 mm): 100% | cortical bone thickness increase in GST-RANKL group vs PBS ([2]; PTH 40 μg/kg, 1.0 mm): 98% | total bone density increase in GST-RANKL group vs PBS ([2]; PTH 40 μg/kg, 1.0 mm): 19% | cortical bone density in the diaphysis, increase in GST-RANKL group ([2]; PTH 80 μg/kg): 3% | cancellous bone density increase in GST-RANKL group ([2]; PTH 80 μg/kg, 0.6 mm): 20% | cortical bone mineral content increase in GST-RANKL group ([2]; PTH 80 μg/kg, 0.6 mm): 46% | cortical bone thickness increase in GST-RANKL group ([2]; PTH 80 μg/kg, 0.6 mm): 50% | total bone density increase in GST-RANKL group ([2]; PTH 80 μg/kg, 0.6 mm): 10% | cortical bone mineral content increase in GST-RANKL group ([2]; PTH 80 μg/kg, 0.8 mm): 83% | cortical bone thickness increase in GST-RANKL group ([2]; PTH 80 μg/kg, 0.8 mm): 89% | total bone density increase in GST-RANKL group ([2]; PTH 80 μg/kg, 0.8 mm): 13% | cortical bone mineral content increase in GST-RANKL group ([2]; PTH 80 μg/kg, 1.0 mm): 77% | cortical bone thickness increase in GST-RANKL group ([2]; PTH 80 μg/kg, 1.0 mm): 79% | total bone density increase in GST-RANKL group ([2]; PTH 80 μg/kg, 1.0 mm): 13% | serum ALP concentration in GST-RANKL group ([2]; PTH 80 μg/kg, p<0.01): significantly decreased | serum Ca concentration in GST-RANKL group ([2]; PTH 80 μg/kg, p<0.05): slightly significant decrease | serum TRAP-5b concentration ([2]; PTH 40 or 80 μg/kg s.c. 10 days): no significant changes | cortical bone density increase in GST-RANKL administration group [3]: 3%

C/C(O)=C(\C#N)C(=O)Nc1cc(Br)ccc1Br [LFM-A13]
bone mass decrease caused by GST-RANKL (micro CT) ([4]; LFM-A13 20 mg/kg 1 hour before GST-RANKL 20 μg): suppressed | decrease in the trabecular number (Tb.N) resulting from GST-RANKL ([4]; LFM-A13 20 mg/kg, p<0.01): significantly suppressed | decrease in unit bone mass (BV/TV) caused by GST-RANKL ([4]; LFM-A13 20 mg/kg, p<0.01): significantly suppressed | increase in the eroded surface area (ES/BS) resulting from GST-RANKL ([4]; LFM-A13 20 mg/kg, p<0.01): significantly suppressed | increase in the osteoclast number (N.Oc/B.Pm) resulting from GST-RANKL ([4]; LFM-A13 20 mg/kg, p<0.01): significantly suppressed | decrease in the trabecular width (Tb.Th) resulting from GST-RANKL ([4]; LFM-A13 20 mg/kg, p<0.05): significantly suppressed | increase in the serum Ca concentration resulting from GST-RANKL ([4]; LFM-A13 20 mg/kg, p<0.05): significantly suppressed

O=P(O)(O)C(O)(Cc1cccnc1)P(=O)(O)O [risedronate]
serum CTx concentration decrease vs control group ([5]; combination of GST-RANKL 426 nmol and risedronate 0.01 mg/kg s.c.): approximately 30% | serum TRAP-5b concentration decrease vs control group ([5]; combination of GST-RANKL 426 nmol and risedronate 0.01 mg/kg s.c. every 24 hours): approximately 30% | femur bone density vs control [5, 9]: comparable to that for the control group | serum alkaline phosphatase concentration vs control [5, 9]: did not change | serum osteocalcin concentration vs control [5, 9]: did not change | serum TRAP-5b decrease vs RANKL alone ([6]; risedronate 3 μg/kg s.c. every 24 hours): approximately 30% | bone density decrease suppressed to ([6]; risedronate 3 μg/kg, 0.6 mm): 12% | bone density decrease suppressed to ([6]; risedronate 3 μg/kg, 0.8 mm): 18% | bone density decrease suppressed to ([6]; risedronate 3 μg/kg, 1.0 mm): 24% | serum TRAP-5b decrease vs RANKL alone ([6]; risedronate 10 μg/kg s.c.): ~50% | bone density decrease suppressed to ([6]; risedronate 10 μg/kg, 0.6 mm): 13% | bone density decrease suppressed to ([6]; risedronate 10 μg/kg, 0.8 mm): 28% | bone density decrease suppressed to ([6]; risedronate 10 μg/kg, 1.0 mm): 30% | serum ALP concentration vs RANKL alone ([6]; risedronate 30 μg/kg): significantly decreased | serum TRAP-5b decrease vs RANKL alone ([6]; risedronate 30 μg/kg s.c.): ~70% | bone density decrease suppressed to ([6]; risedronate 30 μg/kg, 0.6 mm): 10% | bone density decrease suppressed to ([6]; risedronate 30 μg/kg, 0.8 mm): 18% | bone density decrease suppressed to ([6]; risedronate 30 μg/kg, 1.0 mm): 20% | serum Ca concentration vs RANKL administration ([7]; 1 μg/kg s.c., p<0.01): significantly decreased | increase in the TRAP-5b concentration ([7]; 1 μg/kg, p<0.05): significantly suppressed | increase in the TRAP-5b concentration ([7]; 10 μg/kg, p<0.01): significantly suppressed | serum Ca concentration vs RANKL administration ([7]; 100 μg/kg s.c., p<0.01): significantly decreased | bone density decrease suppressed to ([7]; 100 μg/kg, 0.6-mm point): 1% | increase in the TRAP-5b concentration ([7]; 100 μg/kg, p<0.01): significantly suppressed | dose at which the effects were exhibited ([7]; s.c. from the day before GST-RANKL): 0.1 mg/kg

B1: Soluble RANKL: Soluble RANKL (produced by Peprotech) (protein, UniProt O14788 69-317, looked up)
extracellular domain: YFRAQMDPNRISEDGTHCIYRILRLHENADFQDTTLESQDTKLIPDSCRRIKQAFQGAVQKELQHIVGSQHIRAEKAMVDGSWLDLAKRSKLEAQPFAHLTINATDIPSGSHKVSLSSWYHDRGWAKISNMTFSNGKLIVNQDGFYYLYANICFRHHETSGDLATEYLQLMVYVTKTSIKIPSSHTLMKGGSTKYWSGNSEFHFYSINVGGFFKLRSGEEISIEVSNPSLLDPDQDATYFGAFKVRDID
modifications: extracellular domain
femur bone density decrease ([8]; 426 nmol): approximately 20% | serum CTx concentration, fold as high ([8]; 426 nmol): ~1.5 fold | serum alkaline phosphatase concentration ([8]; 426 nmol): did not vary | serum osteocalcin concentration ([8]; 426 nmol): did not vary | serum calcium concentration, fold as high ([8]; 426 nmol high dose i.p. 3 times): approximately 1.4 fold | serum TRAP-5b concentration, fold as high ([8]; 426 nmol, no significant difference): approximately 1.25 fold
